Reference: patent publication US20110123617A1, “CLIOQUINOL FOR THE TREATMENT OF HEMATOLOGICAL MALIGNANCIES” (priority 2007, published 2011)

Key:
[1] = test system: chymotrypsin-like activity of the proteasome; assay: Proteasome activity after treatment of intact cell lines; type: cell-based; conditions: intact leukemia and myeloma cell lines
Experimental: A) Proteasome activity of MDAY-D2 and JJN3 cellular extracts after two hours of treatment with clioquinol (CQ), CuCl2 (Cu), or an equimolar concentration of CQ and Cu. After treatment, the preferential chymotrypsin-like substrate Suc-LLVY-AMC was added and the rate of free AMC was measured over time with a florescent spectrophotometric plate reader (excitation=380 nm, emission=460 nm). B) Proteasome activity of intact MDAY-D2 and JJN3 cells after two hours of treatment with clioquinol (CQ), CuCl2 (Cu), or an equimolar concentration of CQ and Cu. After treatment, the preferential chymotrypsin-like substrate Suc-LLVY-AMC was added and the rate of free AMC was measured over time with a florescent spectrophotometric plate reader (excitation=380 nm, emission=460 nm). Cellular proteins were extracted from cells with lysis buffer (50 mM HEPES pH 7.5, 150 mM NaCl, 2 mM ATP, and 1% Triton X-100). The chymotrypsin-like activity of the proteasome was measured by incubating equal amounts of protein with the preferential chymotrypsin-like substrate Suc-LLVY-AMC in assay buffer (50 mM Tris-HCl, pH 7.5, 150 mM NaCl) for two hours. After incubation, […] and the rate of free AMC was measured over time with a florescent spectrophotometric plate reader (excitation=380 nm, emission=460 nm). […]

[2] = test system: chymotrypsin-like activity of the proteasome; assay: Proteasome activity in cell lysates (Suc-LLVY-AMC cleavage); type: biochemical; conditions: cell lysates from leukemia and myeloma cell lines
Experimental: A) Proteasome activity of MDAY-D2 and JJN3 cellular extracts after two hours of treatment with clioquinol (CQ), CuCl2 (Cu), or an equimolar concentration of CQ and Cu. After treatment, the preferential chymotrypsin-like substrate Suc-LLVY-AMC was added and the rate of free AMC was measured over time with a florescent spectrophotometric plate reader (excitation=380 nm, emission=460 nm). B) Proteasome activity of intact MDAY-D2 and JJN3 cells after two hours of treatment with clioquinol (CQ), CuCl2 (Cu), or an equimolar concentration of CQ and Cu. After treatment, the preferential chymotrypsin-like substrate Suc-LLVY-AMC was added and the rate of free AMC was measured over time with a florescent spectrophotometric plate reader (excitation=380 nm, emission=460 nm). […] The chymotrypsin-like activity of the proteasome was measured by incubating equal amounts of protein with the preferential chymotrypsin-like substrate Suc-LLVY-AMC in assay buffer (50 mM Tris-HCl, pH 7.5, 150 mM NaCl) for two hours. After incubation, […] and the rate of free AMC was measured over time with a florescent spectrophotometric plate reader (excitation=380 nm, emission=460 nm). […] The chymotrypsin-like activity of the proteasome was measured by monitoring the rate of cleavage of the fluorescent substrate Suc-LLVY-AMC.

## [Cl][Cu][Cl] [copper, CuCl2]
[1]
  chymotrypsin-like activity of the proteasome: no effect on the function of proteasome
[2]
  rate of Suc-LLVY-AMC cleavage: inhibited the rate of Suc-LLVY-AMC cleavage
